Assay results reported in patent publication US20050019372A1, “Modified-fat nutritional products useful preventing or treating obesity” (priority 2001, published 2005).

Assays:
Type in all cases: cell-based
3T3-L1 adipocytes = assay: Partitioning of [1-14C]FFA between CO2 production and TG incorporation; conditions: 60 min, 1 mM fatty acid in 0.2 mM BSA, means ± S.E.M., n=3
Method: Partitioning of [1-^14C]FFA between CO2production7 and TG incorporation. 3T3-L1 cells were prepared in T25 culture flasks. […] The incubation was terminated after 60 min. ^14CO2 released from fatty acid oxidation was collected and quantified using a published protocol. The cellular lipids were extracted and separated by TLC. The TG fraction was scraped off and dissolved in Ecosin-A solution for scintillation counting. […] Cellular DNA was measured in parallel cultures.

3T3-L1 cells = assay: Fatty acid induced differentiation (cellular TG content, G3PD activity), no MDI; conditions: for G3PD / TG: basal medium with insulin 2.5 μg/ml, no MDI, means ± S.E.M., n=3
Method: Fatty acid induced differentiation. […] The 5:1 molar ratio of FFA/BSA promotes net transfer of FFA from BSA-binding sites to cells. No MDI treatment was applied to these cultures.
Measurement of total cellular DNA, TG and G3PD activity. […] G3PD was measured by following the disappearance of NADH during enzyme-catalysed dihydroxyacetone phosphate reduction under zero-order conditions.

3T3-L1 fat cells = assay: Basal lipolysis and turnover of esterified fatty acids (glycerol release, NMR, GLC); conditions: for 8:0 acyl chains in cellular TG: means ± S.E.M.
Method: Measurement of basal lipolysis. […] Control cultures were terminated at this time, and cells were homogenated for TG and DNA analysis. After aliquots were taken for these analyses, cellular lipids were extracted for NMR and GLC analysis. Parallel cultures were washed three times with PBS solution and incubated with serum-free DMEM containing 1% BSA, conditions that favour basal lipolysis. At the end of the incubation, media were aspirated and assayed for glycerol (Sigma procedure no. 337A [27]), and the cells were harvested for analysis as described above.
Quantification of ^13C label incorporation into cellular TG from the NMR peak intensity. The ^13C-NMR spectra were obtained at 125 MHz on a Bruker DMX-500 spectrometer with a 5-mm triple resonance probe (Bilerica, Mass., U.S.A.). Other details have been described in our previous reports. The absolute intensities of ^13C═O signals were measured by reference to an internal standard. […] Therefore, the signal intensity from direct incorporation of [1-^13C]octanoate was obtained by subtracting the background signal from control.
Methylation of TG and GLC analysis of fatty acyl composition. The lipid components of cell extracts were separated by TLC (hexane/ethyl ether/acetic acid, 70:30:1). Methylation was performed by incubation in BF3-methanol solution (14%, v/v, BF3 in methanol) at 60° C. for 30 min. The fatty acid methyl ester was extracted into a hexane solution. The hexane solution was dried with anhydrous sodium sulphate. To avoid the evaporation of methyl octanoate, the hexane solution was used directly for GLC study without further condensation. GLC analysis was performed on a Shimuzu 14A gas chromatograph with a Supelco SP™-2380 capillary column with an initial oven temperature of 150° C., final temperature of 240° C., heating rate of 4° C./min, injector temperature of 220° C. and detector temperature of 240° C. Carrier gas (He) was at 50 kPa, make-up carrier gas (He) at 100 kPa, hydrogen gas at 55 kPa and compressed air at 50 kPa. The sample was injected in 1-1.5 μl with splitting rate of 1:25.

[1] = After 96 h incubation with DMEM (1% BSA)
[2] = Before 96 h incubation with DMEM (1% BSA)

**Q.** With `CCCCCCCC/C=C\CCCCCCCC(=O)O` [Oleate, oleate, reference compound] as the molecule, how does the “Exogenous fatty acid converted into CO2” value (3T3-L1 adipocytes) read?
**A.** The value was 0.7 ± 0.1 nmol/h per μg of DNA.

**Q.** And the “Exogenous fatty acid converted into TG” value (3T3-L1 adipocytes)?
**A.** The value was 7.6 ± 0.8 nmol/h per μg of DNA.

**Q.** And the G3PD (3T3-L1 cells; Day 6)?
**A.** Its G3PD is 0.45 ± 0.02 nmol/min per μg of DNA.

**Q.** What about the TG (3T3-L1 cells; Day 6) of the same molecule?
**A.** The TG was 1.7 ± 0.2 μg/μg of DNA.

**Q.** What about the G3PD (3T3-L1 cells; Day 9) of the same molecule?
**A.** Its G3PD is 1.7 ± 0.1 nmol/min per μg of DNA.

**Q.** And the TG (3T3-L1 cells; Day 9)?
**A.** The TG was 5.1 ± 0.3 μg/μg of DNA.

**Q.** And the “Cell loss after extended fatty acid incubation” value (3T3-L1 cells; microscopy, corroborated by DNA analysis)?
**A.** The value was roughly 20%.

**Q.** And the “Oleate share of accumulated TG” value (3T3-L1 cells; oleate-treated cells)?
**A.** The value was greater than 80%.

**Q.** What about the “Time after incubation at which lipid droplets began to appear” value (3T3-L1 cells; undifferentiated cells, not treated with MDI) of the same molecule?
**A.** Its value is 3 days.

**Q.** What about the “14:0 acyl chains in cellular TG” value (3T3-L1 fat cells; [1]) of the same molecule?
**A.** The value was 3.28 ± 0.02%.

**Q.** What about the “14:1 acyl chains in cellular TG” value (3T3-L1 fat cells; [1]) of the same molecule?
**A.** The value was 5.48 ± 0.03%.

**Q.** What about the “15:0 acyl chains in cellular TG” value (3T3-L1 fat cells; [1]) of the same molecule?
**A.** Its value is 1.36 ± 0.02%.

**Q.** And the “15:1 acyl chains in cellular TG” value (3T3-L1 fat cells; [1])?
**A.** The value was 1.24 ± 0.09%.

**Q.** What about the “16:0 acyl chains in cellular TG” value (3T3-L1 fat cells; [1]) of the same molecule?
**A.** Its value is 23.65 ± 0.03%.

**Q.** And the “16:1 acyl chains in cellular TG” value (3T3-L1 fat cells; [1])?
**A.** Its value is 38.65 ± 0.2%.

**Q.** And the “17:0 acyl chains in cellular TG” value (3T3-L1 fat cells; [1])?
**A.** Its value is 0.75 ± 0.03%.

**Q.** And the “17:1 acyl chains in cellular TG” value (3T3-L1 fat cells; [1])?
**A.** Its value is 3.98 ± 0.07%.

**Q.** What about the “18:0 acyl chains in cellular TG” value (3T3-L1 fat cells; [1]) of the same molecule?
**A.** Its value is 0.41 ± 0.02%.

**Q.** And the “18:1 n9 acyl chains in cellular TG” value (3T3-L1 fat cells; [1])?
**A.** The value was 19.71 ± 0.02%.

**Q.** What about the “18:1 n11 acyl chains in cellular TG” value (3T3-L1 fat cells; [1]) of the same molecule?
**A.** Its value is 1.51 ± 0.12%.

**Q.** What about the “8:0 acyl chains in cellular TG” value (3T3-L1 fat cells; After 96 h incubation with DMEM (1% BSA), n=3) of the same molecule?
**A.** Its value is 0%.

**Q.** And the “14:0 acyl chains in cellular TG” value (3T3-L1 fat cells; [2])?
**A.** Its value is 2.84 ± 0.09%.

**Q.** And the “14:1 acyl chains in cellular TG” value (3T3-L1 fat cells; [2])?
**A.** The value was 4.75 ± 0.08%.

**Q.** And the “15:1 acyl chains in cellular TG” value (3T3-L1 fat cells; [2])?
**A.** The value was 0.81 ± 0.01%.

**Q.** What about the “16:0 acyl chains in cellular TG” value (3T3-L1 fat cells; [2]) of the same molecule?
**A.** The value was 20.01 ± 0.36%.

**Q.** And the “16:1 acyl chains in cellular TG” value (3T3-L1 fat cells; [2])?
**A.** Its value is 27.34 ± 0.29%.

**Q.** And the “17:0 acyl chains in cellular TG” value (3T3-L1 fat cells; [2])?
**A.** Its value is 0.82 ± 0.03%.

**Q.** What about the “17:1 acyl chains in cellular TG” value (3T3-L1 fat cells; [2]) of the same molecule?
**A.** Its value is 3.31 ± 0.26%.

**Q.** And the “18:0 acyl chains in cellular TG” value (3T3-L1 fat cells; [2])?
**A.** Its value is 0.38 ± 0.04%.

**Q.** And the “18:1 n9 acyl chains in cellular TG” value (3T3-L1 fat cells; [2])?
**A.** The value was 36.4 ± 0.4%.

**Q.** What about the “18:1 n11 acyl chains in cellular TG” value (3T3-L1 fat cells; [2]) of the same molecule?
**A.** Its value is 1.35 ± 0.07%.

**Q.** And the “8:0 acyl chains in cellular TG” value (3T3-L1 fat cells; Before 96 h incubation with DMEM (1% BSA), n=3)?
**A.** Its value is 0%.

**Q.** And the “Decline of proportion of oleate in cellular TG” value (3T3-L1 fat cells; after 96-h incubation with DMEM, GLC)?
**A.** Its value is 50%.

**Q.** What about the “[1-13C]fatty acid remaining esterified in TG” value (3T3-L1 fat cells; after 96-h incubation with DMEM, NMR, ±S.E.M., n=3) of the same molecule?
**A.** The value was “over 99±3.3%”.
